Experimental data published in patent US12378224B2 (Dong-A Socio Holdings Co., Ltd., priority 2016, dated 2025).

molecular target: human c-MER catalytic domain (Homo sapiens (Human), UniProt Q12866); assay: TR-FRET Kinase Activity Biochemical Assay (LanthaScreen); conditions: 10 uM ATP, 1 hour, kinase not given
Method in brief: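 Activity was quantified as the ratio of 495 nm to 520 nm emission (excitation 340 nm) in a LanthaScreen TR-FRET format. The enzyme was the human c-MER catalytic domain, and the substrate was fluorescein-poly-GT. Detection used 2 nM Tb anti-phosphotyrosine antibody for 30 min after termination with 10 mM EDTA.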

human c-MER catalytic domain, sequence (Q12866 587-858): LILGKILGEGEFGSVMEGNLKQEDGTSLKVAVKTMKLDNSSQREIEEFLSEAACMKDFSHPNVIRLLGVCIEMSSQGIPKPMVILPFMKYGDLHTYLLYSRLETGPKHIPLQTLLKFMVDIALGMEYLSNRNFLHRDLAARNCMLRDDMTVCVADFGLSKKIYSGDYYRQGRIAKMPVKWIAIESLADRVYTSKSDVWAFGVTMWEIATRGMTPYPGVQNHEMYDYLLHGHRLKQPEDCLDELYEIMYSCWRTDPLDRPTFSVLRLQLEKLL

SMILES | IC50 [nM]
CN(C)c1ccc(-c2ccc(C(=O)N3CC[C@@H](NC(=O)c4cc(-c5cnn(C)c5)cnc4N)C3)cc2)cc1 [Example 379, (R)-2-amino-N-(1-(4′-(dimethylamino)-[1,1′-biphenyl]-4-carbonyl)pyrrolidin-3-yl)-5-(1-methyl-1H-pyrazol-4-yl)nicotinamide] | 10 to 100
Cn1cc(-c2cnc(N)c(C(=O)N[C@@H]3CCN(C(=O)c4ccc(-c5cccc(C=O)c5)cc4)C3)c2)cn1 [Example 382, (R)-2-amino-N-(1-(3′-formyl-[1,1′-biphenyl]-4-carbonyl)pyrrolidin-3-yl)-5-(1-methyl-1H-pyrazol-4-yl)nicotinamide] | 10 to 100
Cn1cc(-c2cnc(N)c(C(=O)N[C@@H]3CCN(C(=O)c4ccc(-c5ccccc5)nc4)C3)c2)cn1 [Example 398, (R)-2-amino-5-(1-methyl-1H-pyrazol-4-yl)-N-(1-(6-phenylnicotinoyl)pyrrolidin-3-yl)nicotinamide] | 100 to 1000
Cc1csc(C(=O)N2CC[C@@H](NC(=O)c3cc(-c4cnn(C)c4)cnc3N)C2)c1 [Example 409, (R)-2-amino-5-(1-methyl-1H-pyrazol-4-yl)-N-(1-(4-methylthiophene-2-carbonyl)pyrrolidin-3-yl)nicotinamide] | > 1000
Cn1cc(-c2cnc(N)c(C(=O)N[C@@H]3CCN(C(=O)c4ccc(OC5C=CCCC5)cc4)C3)c2)cn1 (stereo partly drawn) [Example 411, 2-amino-N-((3R)-1-(4-(cyclohex-2-en-1-yloxy)benzoyl)pyrrolidin-3-yl)-5-(1-methyl-1H-pyrazol-4-yl)nicotinamide] | 100 to 1000
Cn1cc(-c2cnc(N)c(C(=O)N[C@@H]3CCN(C(=O)c4ccc(CCBr)cc4)C3)c2)cn1 [Example 413, (R)-2-amino-N-(1-(4-(2-bromoethyl)benzoyl)pyrrolidin-3-yl)-5-(1-methyl-1H-pyrazol-4-yl)nicotinamide] | > 1000
C=Cc1ccc(C(=O)N2CC[C@@H](NC(=O)c3cc(-c4cnn(C)c4)cnc3N)C2)cc1 [Example 417, (R)-2-amino-5-(1-methyl-1H-pyrazol-4-yl)-N-(1-(4-vinylbenzoyl)pyrrolidin-3-yl)nicotinamide] | 100 to 1000
Cn1cc(-c2cnc(N)c(C(=O)N[C@@H]3CCN(C(=O)Cc4cccc(Br)c4)C3)c2)cn1 [Example 421, (R)-2-amino-N-(1-(2-(3-bromophenyl)acetyl)pyrrolidin-3-yl)-5-(1-methyl-1H-pyrazol-4-yl)nicotinamide] | > 1000
Cn1cc(-c2cnc(N)c(C(=O)N[C@@H]3CCN(C(=O)Cc4cccc(-c5ccccc5)c4)C3)c2)cn1 [Example 423, (R)—N-(1-(2-([1,1′-biphenyl]-3-yl)acetyl)pyrrolidin-3-yl)-2-amino-5-(1-methyl-1H-pyrazol-4-yl)nicotinamide] | > 1000
CN1CCN(Cc2ccc(-c3cccc(/C=C/C(=O)N4CC[C@@H](NC(=O)c5cc(-c6cnn(C)c6)cnc5N)C4)c3)cc2)CC1 [Example 431, (R,E)-2-amino-5-(1-methyl-1H-pyrazol-4-yl)-N-(1-(3-(4′-((4-methylpiperazin-1-yl)methyl)-[1,1′-biphenyl]-3-yl)acryloyl)pyrrolidin-3-yl)nicotinamide] | 100 to 1000
CN1CCN(CCc2cccc(-c3cccc(C(=O)N4CC[C@@H](NC(=O)c5cc(-c6cnn(C)c6)cnc5N)C4)c3)c2)CC1 [Example 453, (R)-2-amino-5-(1-methyl-1H-pyrazol-4-yl)-N-(1-(3′-(2-(4-methylpiperazin-1-yl)ethyl)-[1,1′-biphenyl]-3-carbonyl)pyrrolidin-3-yl)nicotinamide] | > 1000
Cn1cc(-c2cnc(N)c(C(=O)N[C@@H]3CCN(C(=O)c4cccc(-c5cccc(N)c5)c4)C3)c2)cn1 [Example 457, (R)-2-amino-N-(1-(3′-amino-[1,1′-biphenyl]-3-carbonyl)pyrrolidin-3-yl)-5-(1-methyl-1H-pyrazol-4-yl)nicotinamide] | > 1000
Cn1cc(-c2cnc(N)c(C(=O)N[C@@H]3CCN(C(=O)c4cccc(-c5ccoc5)c4)C3)c2)cn1 [Example 468, (R)-2-amino-N-(1-(3-(furan-3-yl)benzoyl)pyrrolidin-3-yl)-5-(1-methyl-1H-pyrazol-4-yl)nicotinamide] | > 1000
Cn1cc(-c2cnc(N)c(C(=O)N[C@@H]3CCN(C(=O)c4cccc(C5=CCCCC5)c4)C3)c2)cn1 [Example 475, (R)-2-amino-5-(1-methyl-1H-pyrazol-4-yl)-N-(1-(2′,3′,4′,5′-tetrahydro-[1,1′-biphenyl]-3-carbonyl)pyrrolidin-3-yl)nicotinamide] | > 1000
Cn1cc(-c2cnc(N)c(C(=O)N[C@@H]3CCN(C(=O)c4cccc(-c5cccc(N6CCCCC6)c5)c4)C3)c2)cn1 [Example 477, (R)-2-amino-5-(1-methyl-1H-pyrazol-4-yl)-N-(1-(3′-(piperidin-1-yl)-[1,1′-biphenyl]-3-carbonyl)pyrrolidin-3-yl)nicotinamide] | > 1000
Cn1cc(-c2cnc(N)c(C(=O)N[C@@H]3CCN(C(=O)c4cc(-c5ccccc5)ccc4N)C3)c2)cn1 [Example 486, (R)-2-amino-N-(1-(4-amino-[1,1′-biphenyl]-3-carbonyl)pyrrolidin-3-yl)-5-(1-methyl-1H-pyrazol-4-yl)nicotinamide] | 100 to 1000

SMILES | IC50 [nM]
Cn1cc(-c2cnc(N)c(C(=O)N[C@@H]3CCN(C(=O)c4ccc(-c5ccoc5)cc4)C3)c2)cn1 [Example 487, (R)-2-amino-N-(1-(4-(furan-3-yl)benzoyl)pyrrolidin-3-yl)-5-(1-methyl-1H-pyrazol-4-yl)nicotinamide] | 100 to 1000
Cn1cc(-c2cnc(N)c(C(=O)N[C@@H]3CCN(C(=O)c4ccc(-c5ccncc5)cc4)C3)c2)cn1 [Example 489, (R)-2-amino-5-(1-methyl-1H-pyrazol-4-yl)-N-(1-(4-(pyridin-4-yl)benzoyl)pyrrolidin-3-yl)nicotinamide] | 100 to 1000
Cn1cc(-c2cnc(N)c(C(=O)N[C@@H]3CCN(C(=O)c4ccc(C5=CCCCC5)cc4)C3)c2)cn1 [Example 494, (R)-2-amino-5-(1-methyl-1H-pyrazol-4-yl)-N-(1-(2′,3′,4′,5′-tetrahydro-[1,1′-biphenyl]-4-carbonyl)pyrrolidin-3-yl)nicotinamide] | 10 to 100
Cn1cc(-c2cnc(N)c(C(=O)N[C@@H]3CCN(C(=O)c4cccc(-c5ccc6c(c5)NC(=O)C6=O)c4)C3)c2)cn1 [Example 495, (R)-2-amino-N-(1-(3-(2,3-dioxoindolin-6-yl)benzoyl)pyrrolidin-3-yl)-5-(1-methyl-1H-pyrazol-4-yl)nicotinamide] | > 1000
Cn1cc(-c2cnc(N)c(C(=O)N[C@@H]3CCN(C(=O)C4Cc5ccccc5C4)C3)c2)cn1 [Example 496, (R)-2-amino-N-(1-(2,3-dihydro-1H-indene-2-carbonyl)pyrrolidin-3-yl)-5-(1-methyl-1H-pyrazol-4-yl)nicotinamide] | > 1000
Cn1cc(-c2cnc(N)c(C(=O)N[C@@H]3CCN(C(=O)c4nc5cc(Cl)ccc5o4)C3)c2)cn1 [Example 498, (R)-2-amino-N-(1-(5-chlorobenzo[d]oxazole-2-carbonyl)pyrrolidin-3-yl)-5-(1-methyl-1H-pyrazol-4-yl)nicotinamide] | > 1000
Cn1cc(-c2cnc(N)c(C(=O)N[C@@H]3CCN(C(=O)c4nn(C)c5ccccc45)C3)c2)cn1 [Example 499, (R)-2-amino-N-(1-(1-methyl-1H-indazole-3-carbonyl)pyrrolidin-3-yl)-5-(1-methyl-1H-pyrazol-4-yl)nicotinamide] | 100 to 1000
Cc1onc(-c2ccccc2)c1C(=O)N1CC[C@@H](NC(=O)c2cc(-c3cnn(C)c3)cnc2N)C1 [Example 500, (R)-2-amino-5-(1-methyl-1H-pyrazol-4-yl)-N-(1-(5-methyl-3-phenylisoxazole-4-carbonyl)pyrrolidin-3-yl)nicotinamide] | > 1000
Cn1cc(-c2cnc(N)c(C(=O)N[C@@H]3CCN(C(=O)c4cccc5c4oc4ccccc45)C3)c2)cn1 [Example 501, (R)-2-amino-N-(1-(dibenzo[b,d]furan-4-carbonyl)pyrrolidin-3-yl)-5-(1-methyl-1H-pyrazol-4-yl)nicotinamide] | > 1000
Cn1cc(-c2cnc(N)c(C(=O)N[C@@H]3CCN(C(=O)c4ccc5[nH]ccc5c4)C3)c2)cn1 [Example 502, (R)—N-(1-(1H-indole-5-carbonyl)pyrrolidin-3-yl)-2-amino-5-(1-methyl-1H-pyrazol-4-yl)nicotinamide] | > 1000
Cn1cc(-c2cnc(N)c(C(=O)N[C@@H]3CCN(C(=O)c4ccc5[nH]c6c(c5c4)CCC6)C3)c2)cn1 [Example 503, (R)-2-amino-5-(1-methyl-1H-pyrazol-4-yl)-N-(1-(1,2,3,4-tetrahydrocyclopenta[b]indole-7-carbonyl)pyrrolidin-3-yl)nicotinamide] | > 1000
Cn1cc(-c2cnc(N)c(C(=O)N[C@@H]3CCN(C(=O)c4ccc(-c5cnn(C6CCN(C(=O)OC(C)(C)C)CC6)c5)cc4)C3)c2)cn1 [Example 511, tert-butyl (R)-4-(4-(4-(3-(2-amino-5-(1-methyl-1H-pyrazol-4-yl)nicotinamido)pyrrolidine-1-carbonyl)phenyl)-1H-pyrazol-1-yl)piperidine-1-carboxylate] | 100 to 1000
CC(=O)n1ccc2cc(C(=O)N3CC[C@@H](NC(=O)c4cc(-c5cnn(C)c5)cnc4N)C3)ccc21 [Example 513, (R)—N-(1-(1-acetyl-1H-indole-5-carbonyl)pyrrolidin-3-yl)-2-amino-5-(1-methyl-1H-pyrazol-4-yl)nicotinamide] | 100 to 1000
CC(=O)n1ccc2c(C(=O)N3CC[C@@H](NC(=O)c4cc(-c5cnn(C)c5)cnc4N)C3)cccc21 [Example 514, (R)—N-(1-(1-acetyl-1H-indole-4-carbonyl)pyrrolidin-3-yl)-2-amino-5-(1-methyl-1H-pyrazol-4-yl)nicotinamide] | > 1000
Cn1cc(-c2cnc(N)c(C(=O)N[C@@H]3CCN(C(=O)c4cn(-c5ccccc5)nc4C(F)(F)F)C3)c2)cn1 [Example 516, (R)-2-amino-5-(1-methyl-1H-pyrazol-4-yl)-N-(1-(1-phenyl-3-(trifluoromethyl)-1H-pyrazole-4-carbonyl)pyrrolidin-3-yl)nicotinamide] | > 1000
